Laboratory results from PubChem BioAssay (NCI).
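Abbreviation: GI50, concentration required for 50% inhibition of growth. TGI denotes the concentration required for complete inhibition of growth.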

Legend:
Assay in all cases: DTP human tumour cell line panel, 384-well format
[1] = tested on: NCI-H23 lung
[2] = tested on: NCI-H460 NSCLC
[3] = tested on: SR leukemia
[4] = tested on: SK-MEL-28 melanoma
[5] = tested on: HOP-92 NSCLC
[6] = tested on: HL-60(TB) leukemia
[7] = tested on: BT-549 breast
[8] = tested on: T-47D breast
[9] = tested on: UO-31 renal
[10] = tested on: SF-295 CNS
[11] = tested on: MCF7 breast
[12] = tested on: UACC-62 melanoma
[13] = tested on: ACHN renal
[14] = tested on: SW-620 colon
[15] = tested on: NCI-H322M lung
[16] = tested on: SF-268 CNS
[17] = tested on: RPMI-8226 leukemia
[18] = tested on: SNB-19 CNS
[19] = tested on: A498 renal
[20] = tested on: IGROV1 ovarian
[21] = tested on: RXF 393 renal
[22] = tested on: HS 578T breast
[23] = tested on: OVCAR-5 ovarian
[24] = tested on: OVCAR-8 ovarian
[25] = tested on: HCC-2998 colon
[26] = tested on: SK-OV-3 ovarian
[27] = tested on: CAKI-1 renal
[28] = tested on: KM12 colon
[29] = tested on: M14 melanoma
[30] = tested on: MDA-MB-435 melanoma
[31] = tested on: COLO 205 colon
[32] = tested on: MALME-3M melanoma
[33] = tested on: HCT-15 colon
[34] = tested on: A549 NSCLC
[35] = tested on: PC-3 prostate
[36] = tested on: 786-0 renal
[37] = tested on: MDA-MB-468 breast
[38] = tested on: EKVX NSCLC
[39] = tested on: NCI-H522 lung
[40] = tested on: SN12C renal
[41] = tested on: OVCAR-3 ovarian
[42] = tested on: K-562 leukemia
[43] = tested on: DU-145 prostate
[44] = tested on: HT29 colon
[45] = tested on: OVCAR-4 ovarian
[46] = tested on: TK-10 renal
[47] = tested on: UACC-257 melanoma
[48] = tested on: HOP-62 NSCLC
[49] = tested on: NCI-H226 lung
[50] = tested on: SF-539 CNS
[51] = tested on: MOLT-4 leukemia
[52] = tested on: CCRF-CEM leukemia
[53] = tested on: MDA-MB-231 breast
[54] = tested on: SK-MEL-5 melanoma
[55] = tested on: NCI/ADR-RES ovarian
[56] = tested on: SNB-75 CNS
[57] = tested on: LOX IMVI melanoma

CN1CCN(C(=O)COc2ccc(C34CC5CC(CC(C5)C3)C4)cc2)CC1
GI50 [1]: 4.5 µM | TGI [1]: 15.9 µM | GI50 [2]: 2480 nM | TGI [2]: 5.79 µM | GI50 [3]: 1680 nM | TGI [3]: 3.08 µM | GI50 [4]: 1740 nM | TGI [4]: 3.19 µM | GI50 [5]: 3.58 µM | TGI [5]: 15.7 µM | GI50 [6]: 1800 nM | TGI [6]: 3.21 µM | GI50 [7]: 3.48 µM | TGI [7]: 16 µM | GI50 [8]: 2660 nM | TGI [8]: 10.6 µM | GI50 [9]: 11.3 µM | TGI [9]: 23.9 µM | GI50 [10]: 2850 nM | TGI [10]: 8.18 µM | GI50 [11]: 2080 nM | TGI [11]: 6.06 µM | GI50 [12]: 1810 nM | TGI [12]: 3.32 µM | GI50 [13]: 7.11 µM | TGI [13]: 19.6 µM | GI50 [14]: 1780 nM | TGI [14]: 3.31 µM | GI50 [15]: 3.81 µM | TGI [15]: 13.5 µM | GI50 [16]: 4.74 µM | TGI [16]: 16.2 µM | GI50 [17]: 1700 nM | TGI [17]: 3.22 µM | GI50 [18]: 10.5 µM | TGI [18]: 22.3 µM | GI50 [19]: 1620 nM | TGI [19]: 3.12 µM | GI50 [20]: 12.7 µM | TGI [20]: 25.3 µM | GI50 [21]: 1850 nM | TGI [21]: 4.12 µM | GI50 [22]: 3.17 µM | TGI [22]: 10.6 µM | GI50 [23]: 5.11 µM | TGI [23]: 16.6 µM | GI50 [24]: 10.3 µM | TGI [24]: 22.1 µM | GI50 [25]: 1560 nM | TGI [25]: 3.11 µM | GI50 [26]: 7.12 µM | TGI [26]: 19.8 µM | GI50 [27]: 2220 nM | TGI [27]: 4.56 µM | GI50 [28]: 2180 nM | TGI [28]: 4.77 µM | GI50 [29]: 1870 nM | TGI [29]: 3.41 µM | GI50 [30]: 3.94 µM | TGI [30]: 13.4 µM | GI50 [31]: 1790 nM | TGI [31]: 3.21 µM | GI50 [32]: 1700 nM | TGI [32]: 3.19 µM | GI50 [33]: 1840 nM | TGI [33]: 3.37 µM | GI50 [34]: 5.49 µM | TGI [34]: 17.8 µM | GI50 [35]: 8.05 µM | TGI [35]: 20.6 µM | GI50 [36]: 1740 nM | TGI [36]: 3.24 µM | GI50 [37]: 1930 nM | TGI [37]: 3.7 µM | GI50 [38]: 11.4 µM | TGI [38]: 23.6 µM | GI50 [39]: 8.25 µM | TGI [39]: 20.5 µM | GI50 [40]: 11.8 µM | TGI [40]: 24.2 µM | GI50 [41]: 7.07 µM | TGI [41]: 19.7 µM | GI50 [42]: 1640 nM | TGI [42]: 3.17 µM | GI50 [43]: 12.1 µM | TGI [43]: 24.6 µM | GI50 [44]: 1720 nM | TGI [44]: 3.31 µM | GI50 [45]: 8.56 µM | TGI [45]: 20.7 µM | GI50 [46]: 9.41 µM | TGI [46]: 21.3 µM | GI50 [47]: 2190 nM | TGI [47]: 4.32 µM | GI50 [48]: 4.84 µM | TGI [48]: 16.5 µM | GI50 [49]: 6.3 µM | TGI [49]: 19.3 µM | GI50 [50]: 3.98 µM | TGI [50]: 13.8 µM | GI50 [51]: 1790 nM | TGI [51]: 4.27 µM | GI50 [52]: 2030 nM | TGI [52]: 4.43 µM | GI50 [53]: 6.09 µM | TGI [53]: 18.5 µM | GI50 [54]: 1850 nM | TGI [54]: 3.37 µM | GI50 [55]: 7.51 µM | TGI [55]: 20.1 µM | GI50 [56]: 11.9 µM | TGI [56]: 24.3 µM | GI50 [57]: 2310 nM | TGI [57]: 5.31 µM
